Measured values: article PMC4027214 (2014)

Key:
[1] = system: TFF1-ERE (DNA, duplex) AGGTCACGGTGGCCA/TGGCCACCGTGACCT; assay: NMR titration and solution structure; conditions: 50 mM sodium phosphate (Na+); pH 7, 25 °C; bis-intercalation, each drug one strong and one weak intercalation site
[2] = system: TFF1-ERE (DNA, duplex) AGGTCACGGTGGCCA/TGGCCACCGTGACCT; assay: fluorescent intercalator displacement (FID); conditions: 5 mM sodium phosphate (Na+); pH 7, 25 °C; ethidium bromide displaced; DNA 16.7 μM; fit assumes KD1 = KD2; apparent

`Cc1cccc2nc3cccc(C(=O)NCCNCCNCCNC(=O)c4cccc5nc6cccc(C)c6nc45)c3nc12` was tested, and the binding [1] was “yes” and the KD [2] was ~ 9.65 × 10^−7 M.
